# Patent US10059669B2, “2-amino-3,5-difluoro-3,6-dimethyl-6-phenyl-3,4,5,6-tetrahydropyridines as BACE1 inhibitors for treating alzheimer's disease” (H. Lundbeck A/S, priority 2014, dated 2018)
# Legend:
# BACE1 [1] = biological target: T1, BACE1 (Homo sapiens (Human), UniProt P56817); test: BACE1 binding assay (SPA-based radioligand binding); conditions: pH 4.5, 10 nM radioligand, Ki calculated from IC50
# Procedure: The binding assay was performed as SPA-based assay using a biotinylated form of human BACE1 recombinantly expressed and subsequently purified from Freestyle HEK293 cells. The binding assay was run in a 50 mM sodium acetate buffer, pH 4.5 containing 50 mM NaCl and 0.03% Tween-20 in white clear bottom 384 plates (Corning #3653). 10 nM (final concentration) radioligand ([^3H]—N-((1S,2R)-1-benzyl-3-cyclopropylamino-2-hydroxy-propyl)-5-(methanesulfonyl-methyl-amino)-N—((R)-1-phenyl-ethyl)-isophthalamide) (TRQ11569 purchased from GE Healthcare) was mixed with test compound at a given concentration, 6 nM (final concentration) human BACE1 and 25 μg Streptavidin coated PVT core SPA beads (RPNQ0007, GE Healthcare Life Sciences) in a total volume of 40 μl. Several concentrations of each test compound were tested in the assay for IC50 determination. The plates were incubated for one hour at room temperature and counted in a Wallac Trilux counter. Total and non-specific binding were determined using buffer and 1 μM (final concentration) of the high affinity BACE1 reference inhibitor (S)-6-[3-chloro-5-(5-prop-1-ynyl-pyridin-3-yl)-thiophen-2-yl]-2-imino-3,6-dimethyl-tetrahydro-pyrimidin-4-one, respectively. For each test compound, a IC50 value (the concentration mediating 50% inhibition of the specific binding of the radioligand) was determined from concentration-response curve and used to calculate the Ki from the equation Ki=IC50/(1+L/Kd), where L and Kd are the final concentration of the radioligand used in the assay and the dissociation constant of the radioligand, respectively. The Kd of the radioligand was determined from saturation binding experiments.
# P-gp (MDR1) = test: MDCK-MDR1 assay (permeability, efflux ratio); type: in vitro ADME; conditions: dog, Papp BA/Papp AB, 60-minute incubation, Pgp substrate when ≥2
# Procedure: The permeability of the test compounds was assessed in MDCK-MDR1 cells that were cultured to confluency (4-6 days) in a 96 transwell plate. Test compounds were diluted with the transport buffer (HBSS+1% BSA) to a concentration of 0.5 μM and applied to the apical or basolateral side of the cell monolayer. Permeation of the test compounds from A to B direction or B to A direction was determined in triplicate over a 60-minute incubation time at 37° C. and 5% CO2 with a relative humidity of 95%. Test compounds were quantified by LC-MS/MS analysis based on the peaks area ratios of analyte/IS in both the receiver and donor wells of the transwell plate.
# The apparent permeability coefficient Papp (cm/s) was calculated using the equation: Papp=(dCr/dt)×Vr/(A×C0)
# Where dCr/dt is the cumulative concentration of compound in the receiver chamber as a function of time (M/s); Vr is the solution volume in the receiver chamber (0.05 mL on the apical side; 0.25 mL on the basolateral side); A is the surface area for the transport, i.e. 0.0804 cm^2 for the area of the monolayer; C0 is the initial concentration in the donor chamber (VIM).
# Compounds are classified Pgp substrates when efflux ratio (Papp BA/Papp AB) is ≥2.
# BACE1 [2] = biological target: T1, BACE1; test: BACE1 efficacy assay (FRET-based, commercial BACE1 kit); type: biochemical; conditions: 10 μM test compound
# Procedure: The efficacy assay was performed as a FRET-based assay using a commercially available BACE1 kit (Life Technologies, P2985). 2 μl test compound at 10 μM (final concentration) and 15 μl BACE1 enzyme from the kit (final concentration 3 nM) were preincubated for 15 minutes at room temperature before addition of 15 μl of substrate from the kit (250 nM final concentration) and incubated for additional 90 minutes at room temperature. The assay plate was subsequently read in a Pherastar (Ex540/Em590). The enzyme activity observed in presence of test compound were normalized to the enzyme activity observed in presence of buffer and 10 μM (final concentration) of the high affinity BACE1 reference inhibitor (S)-6-[3-Chloro-5-(5-prop-1-ynyl-pyridin-3-yl)-thiophen-2-yl]-2-imino-3,6-dimethyl-tetra-hydropyrimidin-4-one, respectively. The efficacy of the test compounds was evaluated at 10 μM (final concentration) and defined as the percent inhibition of the enzyme activity using the equation % inhibition=100%−normalized enzyme activity in percent.
# T1 sequence (P56817 46-501): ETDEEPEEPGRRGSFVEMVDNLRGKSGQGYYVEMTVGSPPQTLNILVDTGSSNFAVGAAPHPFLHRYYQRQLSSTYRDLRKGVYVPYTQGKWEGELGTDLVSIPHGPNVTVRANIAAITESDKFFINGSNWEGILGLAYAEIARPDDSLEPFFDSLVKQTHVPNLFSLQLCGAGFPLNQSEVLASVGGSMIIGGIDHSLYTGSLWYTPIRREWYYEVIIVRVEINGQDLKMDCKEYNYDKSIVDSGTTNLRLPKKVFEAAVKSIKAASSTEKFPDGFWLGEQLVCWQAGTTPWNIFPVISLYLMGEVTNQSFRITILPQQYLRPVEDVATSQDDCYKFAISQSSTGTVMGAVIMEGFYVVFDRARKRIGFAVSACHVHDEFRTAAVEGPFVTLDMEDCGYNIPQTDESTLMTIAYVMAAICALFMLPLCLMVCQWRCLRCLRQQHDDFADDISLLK
Ki (BACE1 [1]),"efflux ratio at 60 min, 0.5 μM (P-gp (MDR1))",inhibition at 10 µM (BACE1 [2]),SMILES
58 nM,0.95,100%,"[2H]C([2H])([2H])Oc1ccc(C(=O)Nc2ccc(F)c([C@@]3(C)N=C(N)[C@](C)(F)C[C@@H]3F)c2)nc1 [Compound 8, N-(3-((2R,3S,5R)-6-amino-3,5-difluoro-2,5-dimethyl-2,3,4,5-tetrahydropyridin-2-yl)-4-fluorophenyl)-5-(methoxy-d3)picolinamide]"
220 nM,1.6,103%,"C[C@@]1(F)C[C@H](F)[C@@](C)(c2cc(NC(=O)c3ccc(Cl)cc3)ccc2F)N=C1N [Compound 16, N-(3-((2R,3S,5R)-6-amino-3,5-difluoro-2,5-dimethyl-2,3,4,5-tetrahydropyridin-2-yl)-4-fluorophenyl)-4-chlorobenzamide]"
4.1 nM,1.15,117%,"Cc1cc(C#N)cnc1C(=O)Nc1ccc(F)c([C@@]2(C)N=C(N)[C@@](C)(F)C[C@@H]2F)c1 [Compound 21, N-(3-((2R,3S,5S)-6-amino-3,5-difluoro-2,5-dimethyl-2,3,4,5-tetrahydropyridin-2-yl)-4-fluorophenyl)-5-cyano-3-methylpicolinamide]"
